In patent US10815230B2, “Casein kinase 1 delta inhibitor” (ELECTROPHORETICS LIMITED, priority 2015, dated 2020):

How the values were obtained:
Experiment in all cases: KINOMEscan binding assay
Conditions in all cases: read-out: % Ctrl @ 10000 nM
[1] = target: RSK3 Kin.Dom.2-C-terminal (Homo sapiens, UniProt Q15349)
MYO3A = MYO3A (Homo sapiens, UniProt Q8NEV4)
MST1 = MST1 (Homo sapiens, UniProt Q13043)
EIF2AK1 = EIF2AK1 (Homo sapiens, UniProt Q9BQI3)
TYK2 JH1domain-catalytic = TYK2 JH1domain-catalytic (Homo sapiens, UniProt P29597)
ULK1 = target: T1, ULK1 (Homo sapiens, UniProt O75385)
T1 construct: purchased DiscoveRx (KINOMEscan, LeadHunter Discovery services)

YANK2 = target: T2, YANK2 (Homo sapiens, UniProt Q9NY57)
T2 construct: purchased DiscoveRx (KINOMEscan, LeadHunter Discovery services)

MKNK1 = MKNK1 (Homo sapiens, UniProt Q9BUB5)
ACVR2A = ACVR2A (Homo sapiens, UniProt P27037)
TTK = TTK (Homo sapiens, UniProt P33981)
CDKL2 = CDKL2 (Homo sapiens, UniProt Q92772)
CDKL2, sequence (Q92772 whole entry): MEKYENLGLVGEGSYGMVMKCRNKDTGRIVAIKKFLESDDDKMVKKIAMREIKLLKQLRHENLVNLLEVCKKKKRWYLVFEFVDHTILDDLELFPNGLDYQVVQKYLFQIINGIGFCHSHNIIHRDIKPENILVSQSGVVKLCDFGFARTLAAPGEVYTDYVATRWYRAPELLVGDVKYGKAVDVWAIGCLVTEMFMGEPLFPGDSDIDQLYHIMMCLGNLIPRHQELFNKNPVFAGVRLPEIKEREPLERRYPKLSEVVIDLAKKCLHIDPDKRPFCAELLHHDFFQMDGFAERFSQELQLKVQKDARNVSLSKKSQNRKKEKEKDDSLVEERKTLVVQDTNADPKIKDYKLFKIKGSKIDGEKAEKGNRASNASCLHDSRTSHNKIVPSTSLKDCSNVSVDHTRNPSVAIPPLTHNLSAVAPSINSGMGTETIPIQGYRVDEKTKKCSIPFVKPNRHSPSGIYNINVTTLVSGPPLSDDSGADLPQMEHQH

EPHA6 = EPHA6 (Homo sapiens, UniProt Q9UF33)
FLT3 (R834Q) = FLT3 (R834Q) (Homo sapiens, UniProt P36888, R834Q)
ERBB3 = ERBB3 (Homo sapiens, UniProt P21860)
[2] = target: ABL1 (F317I) phosphorylated (Homo sapiens, UniProt P00519, F317I)
ABL1 (F317I) phosphorylated, sequence (P00519 whole entry F317I): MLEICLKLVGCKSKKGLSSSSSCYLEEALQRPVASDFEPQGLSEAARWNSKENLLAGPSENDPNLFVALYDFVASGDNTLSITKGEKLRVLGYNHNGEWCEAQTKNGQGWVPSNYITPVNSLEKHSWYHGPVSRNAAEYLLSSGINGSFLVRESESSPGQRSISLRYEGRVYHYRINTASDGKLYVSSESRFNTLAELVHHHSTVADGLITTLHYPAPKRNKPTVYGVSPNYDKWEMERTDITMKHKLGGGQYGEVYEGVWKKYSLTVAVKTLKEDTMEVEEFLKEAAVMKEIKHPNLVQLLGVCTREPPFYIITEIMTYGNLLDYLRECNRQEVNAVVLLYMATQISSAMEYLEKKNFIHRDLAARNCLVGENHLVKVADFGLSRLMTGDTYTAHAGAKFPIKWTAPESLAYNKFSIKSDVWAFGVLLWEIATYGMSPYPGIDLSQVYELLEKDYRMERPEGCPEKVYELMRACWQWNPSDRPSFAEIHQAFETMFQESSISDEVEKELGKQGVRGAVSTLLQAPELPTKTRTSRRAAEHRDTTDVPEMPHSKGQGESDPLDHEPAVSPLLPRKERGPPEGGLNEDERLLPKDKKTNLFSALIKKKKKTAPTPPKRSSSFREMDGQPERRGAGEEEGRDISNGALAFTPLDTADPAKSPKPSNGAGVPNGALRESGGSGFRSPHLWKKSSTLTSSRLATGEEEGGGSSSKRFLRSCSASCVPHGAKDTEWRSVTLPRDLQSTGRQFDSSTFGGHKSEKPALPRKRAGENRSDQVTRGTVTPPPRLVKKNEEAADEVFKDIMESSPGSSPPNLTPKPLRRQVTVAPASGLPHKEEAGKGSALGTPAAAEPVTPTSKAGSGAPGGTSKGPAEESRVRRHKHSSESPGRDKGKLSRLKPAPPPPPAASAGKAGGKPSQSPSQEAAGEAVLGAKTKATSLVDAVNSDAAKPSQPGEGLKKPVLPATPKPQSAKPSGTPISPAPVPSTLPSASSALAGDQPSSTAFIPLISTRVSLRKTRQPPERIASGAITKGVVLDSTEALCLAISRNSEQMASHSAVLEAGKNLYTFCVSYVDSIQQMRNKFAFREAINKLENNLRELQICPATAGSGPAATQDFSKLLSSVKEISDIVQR

CSNK1E = CSNK1E (Homo sapiens, UniProt P49674)
AKT3 = AKT3 (Homo sapiens, UniProt Q9Y243)
PIK3CA (H1047L) = PIK3CA (H1047L) (Homo sapiens, UniProt P42336, H1047L)
FGR = FGR (Homo sapiens, UniProt P09769)
CSF1R-autoinhibited = CSF1R-autoinhibited (Homo sapiens, UniProt P07333)
PDGFRA = PDGFRA (Homo sapiens, UniProt P16234)
TGFBR2 = TGFBR2 (Homo sapiens, UniProt P37173)
TGFBR2, sequence (P37173 23-567): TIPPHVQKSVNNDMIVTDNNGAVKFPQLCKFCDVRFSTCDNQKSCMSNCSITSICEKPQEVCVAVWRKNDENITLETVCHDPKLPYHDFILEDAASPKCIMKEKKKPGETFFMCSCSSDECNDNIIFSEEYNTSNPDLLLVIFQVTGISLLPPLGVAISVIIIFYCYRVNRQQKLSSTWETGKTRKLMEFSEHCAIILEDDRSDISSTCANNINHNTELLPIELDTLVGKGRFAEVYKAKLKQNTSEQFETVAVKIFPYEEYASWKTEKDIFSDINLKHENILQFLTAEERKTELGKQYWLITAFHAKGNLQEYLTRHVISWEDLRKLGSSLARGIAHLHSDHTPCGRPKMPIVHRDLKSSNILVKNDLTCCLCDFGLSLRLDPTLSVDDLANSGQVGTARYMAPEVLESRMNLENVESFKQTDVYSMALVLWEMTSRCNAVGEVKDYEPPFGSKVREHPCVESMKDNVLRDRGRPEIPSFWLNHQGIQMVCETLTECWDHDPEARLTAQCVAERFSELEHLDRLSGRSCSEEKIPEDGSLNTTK

AXL = AXL (Homo sapiens, UniProt P30530)
AXL, sequence (P30530 26-894): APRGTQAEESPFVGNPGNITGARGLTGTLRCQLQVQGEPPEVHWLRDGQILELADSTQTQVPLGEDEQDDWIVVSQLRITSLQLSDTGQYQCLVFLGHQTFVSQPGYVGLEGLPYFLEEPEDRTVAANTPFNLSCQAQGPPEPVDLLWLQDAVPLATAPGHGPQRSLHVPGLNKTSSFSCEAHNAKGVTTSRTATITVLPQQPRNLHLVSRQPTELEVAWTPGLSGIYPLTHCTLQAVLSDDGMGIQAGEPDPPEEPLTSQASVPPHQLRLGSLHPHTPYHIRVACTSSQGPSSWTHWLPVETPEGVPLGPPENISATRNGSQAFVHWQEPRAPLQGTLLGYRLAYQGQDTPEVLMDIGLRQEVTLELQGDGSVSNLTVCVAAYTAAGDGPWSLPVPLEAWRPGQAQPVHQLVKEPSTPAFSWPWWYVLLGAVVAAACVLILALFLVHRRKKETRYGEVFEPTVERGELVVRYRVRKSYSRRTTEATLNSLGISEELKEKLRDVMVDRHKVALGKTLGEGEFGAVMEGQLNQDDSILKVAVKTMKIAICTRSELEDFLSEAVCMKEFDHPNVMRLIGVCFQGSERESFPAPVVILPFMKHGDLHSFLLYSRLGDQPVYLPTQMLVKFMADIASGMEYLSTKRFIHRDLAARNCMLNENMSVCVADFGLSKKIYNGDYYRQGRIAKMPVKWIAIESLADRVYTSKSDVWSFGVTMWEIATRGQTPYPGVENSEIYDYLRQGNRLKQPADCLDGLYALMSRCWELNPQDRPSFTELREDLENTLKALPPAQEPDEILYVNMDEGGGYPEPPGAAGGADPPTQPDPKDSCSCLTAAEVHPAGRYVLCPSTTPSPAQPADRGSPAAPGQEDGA

PRKX = PRKX (Homo sapiens, UniProt P51817)
PRKX, sequence (P51817 whole entry): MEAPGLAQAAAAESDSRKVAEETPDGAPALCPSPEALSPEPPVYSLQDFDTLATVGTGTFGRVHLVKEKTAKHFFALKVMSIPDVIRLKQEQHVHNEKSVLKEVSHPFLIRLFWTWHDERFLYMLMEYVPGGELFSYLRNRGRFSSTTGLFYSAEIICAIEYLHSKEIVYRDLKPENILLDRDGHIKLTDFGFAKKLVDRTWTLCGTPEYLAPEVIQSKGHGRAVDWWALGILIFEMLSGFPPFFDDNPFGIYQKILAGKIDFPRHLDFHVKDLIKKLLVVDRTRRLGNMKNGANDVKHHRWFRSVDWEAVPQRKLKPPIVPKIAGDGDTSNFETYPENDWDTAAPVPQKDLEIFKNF

PIK3C2G = PIK3C2G (Homo sapiens, UniProt O75747)
DCAMKL1 = DCAMKL1 (Homo sapiens, UniProt O15075)
BRSK1 = BRSK1 (Homo sapiens, UniProt Q8TDC3)
CSNK1A1 = CSNK1A1 (Homo sapiens, UniProt P48729)
ERK2 = ERK2 (Homo sapiens, UniProt P28482)
EPHA4 = EPHA4 (Homo sapiens, UniProt P54764)
MST2 = MST2 (Homo sapiens, UniProt Q13188)
p38-beta = p38-beta (Homo sapiens, UniProt Q15759)
ALK (L1196M) = ALK (L1196M) (Homo sapiens, UniProt Q9UM73, L1196M)
IKK-epsilon = IKK-epsilon (Homo sapiens, UniProt Q14164)
TAOK3 = TAOK3 (Homo sapiens, UniProt Q9H2K8)
TAOK3, sequence (Q9H2K8 whole entry): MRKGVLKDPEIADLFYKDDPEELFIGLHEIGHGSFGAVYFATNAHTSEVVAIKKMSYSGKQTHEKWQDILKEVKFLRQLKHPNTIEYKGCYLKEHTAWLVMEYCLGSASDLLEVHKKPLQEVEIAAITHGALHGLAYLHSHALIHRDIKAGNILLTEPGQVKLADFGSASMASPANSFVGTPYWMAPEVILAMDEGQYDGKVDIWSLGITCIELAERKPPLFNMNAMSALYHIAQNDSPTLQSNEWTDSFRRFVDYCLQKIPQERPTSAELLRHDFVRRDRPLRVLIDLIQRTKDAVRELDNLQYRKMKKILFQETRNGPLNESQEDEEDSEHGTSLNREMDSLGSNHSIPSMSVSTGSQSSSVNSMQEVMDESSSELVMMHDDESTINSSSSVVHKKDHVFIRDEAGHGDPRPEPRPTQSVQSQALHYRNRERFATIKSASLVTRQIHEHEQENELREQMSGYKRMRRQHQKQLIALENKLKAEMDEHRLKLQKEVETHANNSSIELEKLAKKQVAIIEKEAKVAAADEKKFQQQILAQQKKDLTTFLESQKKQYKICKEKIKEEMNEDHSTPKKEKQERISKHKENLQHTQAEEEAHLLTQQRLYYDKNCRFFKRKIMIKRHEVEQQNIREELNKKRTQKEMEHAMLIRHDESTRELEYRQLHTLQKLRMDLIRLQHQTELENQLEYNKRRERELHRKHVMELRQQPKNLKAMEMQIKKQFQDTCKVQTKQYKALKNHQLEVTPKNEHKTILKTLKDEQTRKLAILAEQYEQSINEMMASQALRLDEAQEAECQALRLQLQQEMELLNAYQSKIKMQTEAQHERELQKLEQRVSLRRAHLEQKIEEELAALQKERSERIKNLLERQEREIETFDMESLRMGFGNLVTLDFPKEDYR

[3] = target: RSK2 Kin.Dom.1-N-terminal (Homo sapiens, UniProt P51812)
RSK2 Kin.Dom.1-N-terminal, sequence (P51812 68-327 limits assumed): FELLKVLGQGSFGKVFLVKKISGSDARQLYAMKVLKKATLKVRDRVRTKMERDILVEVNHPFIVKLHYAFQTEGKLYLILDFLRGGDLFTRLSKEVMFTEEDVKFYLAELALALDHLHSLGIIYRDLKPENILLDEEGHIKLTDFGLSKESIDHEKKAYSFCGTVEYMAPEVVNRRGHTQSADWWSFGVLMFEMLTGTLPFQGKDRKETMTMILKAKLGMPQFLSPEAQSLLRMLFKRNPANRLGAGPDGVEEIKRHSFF

RET (V804M) = RET (V804M) (Homo sapiens, UniProt P07949, V804M)
ALK = ALK (Homo sapiens, UniProt Q9UM73)
FRK = FRK (Homo sapiens, UniProt P42685)
CSNK1G3 = CSNK1G3 (Homo sapiens, UniProt Q9Y6M4)
CSNK1G3, sequence (Q9Y6M4 whole entry): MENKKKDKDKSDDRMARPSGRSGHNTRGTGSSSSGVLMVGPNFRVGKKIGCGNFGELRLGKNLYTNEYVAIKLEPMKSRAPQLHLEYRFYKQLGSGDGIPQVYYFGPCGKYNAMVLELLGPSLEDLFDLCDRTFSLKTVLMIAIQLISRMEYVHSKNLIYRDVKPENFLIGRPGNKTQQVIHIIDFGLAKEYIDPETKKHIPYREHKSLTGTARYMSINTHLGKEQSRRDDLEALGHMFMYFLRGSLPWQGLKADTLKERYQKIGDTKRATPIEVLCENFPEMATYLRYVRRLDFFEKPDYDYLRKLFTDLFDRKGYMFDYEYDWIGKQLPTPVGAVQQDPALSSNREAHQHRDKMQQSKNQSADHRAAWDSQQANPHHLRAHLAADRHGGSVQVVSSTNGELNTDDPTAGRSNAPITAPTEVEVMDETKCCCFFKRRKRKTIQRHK

ASK1 = ASK1 (Homo sapiens, UniProt Q99683)
SYK = SYK (Homo sapiens, UniProt P43405)

Nc1ncc(-c2nc3ccccc3o2)c(-c2ccncc2)n1 [Comparative Compound 324, 5-(1,3-benzoxazol-2-yl)-4-(pyridine-4-yl)pyrimidin-2-amine]
remaining binding at 10 µM [1]: 100%
remaining binding at 10 µM (MYO3A): 98%
remaining binding at 10 µM (MST1): 92%
remaining binding at 10 µM (EIF2AK1): 83%
remaining binding at 10 µM (TYK2 JH1domain-catalytic): 86%
remaining binding at 10 µM (ULK1): 93%
remaining binding at 10 µM (YANK2): 70%
remaining binding at 10 µM (MKNK1): 96%
remaining binding at 10 µM (ACVR2A): 100%
remaining binding at 10 µM (TTK): 100%
remaining binding at 10 µM (CDKL2): 100%
remaining binding at 10 µM (EPHA6): 100%
remaining binding at 10 µM (FLT3 (R834Q)): 97%
remaining binding at 10 µM (ERBB3): 92%
remaining binding at 10 µM [2]: 100%
remaining binding at 10 µM (CSNK1E): 1.4%
remaining binding at 10 µM (AKT3): 100%
remaining binding at 10 µM (PIK3CA (H1047L)): 100%
remaining binding at 10 µM (FGR): 94%
remaining binding at 10 µM (CSF1R-autoinhibited): 70%
remaining binding at 10 µM (PDGFRA): 86%
remaining binding at 10 µM (TGFBR2): 100%
remaining binding at 10 µM (AXL): 100%
remaining binding at 10 µM (PRKX): 100%
remaining binding at 10 µM (PIK3C2G): 99%
remaining binding at 10 µM (DCAMKL1): 41%
remaining binding at 10 µM (BRSK1): 98%
remaining binding at 10 µM (CSNK1A1): 4.2%
remaining binding at 10 µM (ERK2): 99%
remaining binding at 10 µM (EPHA4): 100%
remaining binding at 10 µM (MST2): 94%
remaining binding at 10 µM (p38-beta): 100%
remaining binding at 10 µM (ALK (L1196M)): 100%
remaining binding at 10 µM (IKK-epsilon): 82%
remaining binding at 10 µM (TAOK3): 91%
remaining binding at 10 µM [3]: 80%
remaining binding at 10 µM (RET (V804M)): 100%
remaining binding at 10 µM (ALK): 89%
remaining binding at 10 µM (FRK): 100%
remaining binding at 10 µM (CSNK1G3): 83%
remaining binding at 10 µM (ASK1): 96%
remaining binding at 10 µM (SYK): 100%

CNc1c(C(N)=O)c2ccccn2c1C(=O)c1ccc(F)cc1 [Compound A, 2-methyl-amino-3-[(4-fluorophenyl)carbonyl]indolizine-1-carboxamide]
remaining binding at 10 µM [1]: 68%
remaining binding at 10 µM (MYO3A): 98%
remaining binding at 10 µM (MST1): 84%
remaining binding at 10 µM (EIF2AK1): 86%
remaining binding at 10 µM (TYK2 JH1domain-catalytic): 71%
remaining binding at 10 µM (ULK1): 86%
remaining binding at 10 µM (YANK2): 78%
remaining binding at 10 µM (MKNK1): 100%
remaining binding at 10 µM (ACVR2A): 98%
remaining binding at 10 µM (TTK): 92%
remaining binding at 10 µM (CDKL2): 85%
remaining binding at 10 µM (EPHA6): 96%
remaining binding at 10 µM (FLT3 (R834Q)): 95%
remaining binding at 10 µM (ERBB3): 62%
remaining binding at 10 µM [2]: 88%
remaining binding at 10 µM (CSNK1E): 0.1%
remaining binding at 10 µM (AKT3): 100%
remaining binding at 10 µM (PIK3CA (H1047L)): 100%
remaining binding at 10 µM (FGR): 66%
remaining binding at 10 µM (CSF1R-autoinhibited): 100%
remaining binding at 10 µM (PDGFRA): 89%
remaining binding at 10 µM (TGFBR2): 100%
remaining binding at 10 µM (AXL): 95%
remaining binding at 10 µM (PRKX): 100%
remaining binding at 10 µM (PIK3C2G): 100%
remaining binding at 10 µM (DCAMKL1): 44%
remaining binding at 10 µM (BRSK1): 100%
remaining binding at 10 µM (CSNK1A1): 0.95%
remaining binding at 10 µM (ERK2): 78%
remaining binding at 10 µM (EPHA4): 98%
remaining binding at 10 µM (MST2): 89%
remaining binding at 10 µM (p38-beta): 100%
remaining binding at 10 µM (ALK (L1196M)): 100%
remaining binding at 10 µM (IKK-epsilon): 74%
remaining binding at 10 µM (TAOK3): 93%
remaining binding at 10 µM [3]: 59%
remaining binding at 10 µM (RET (V804M)): 100%
remaining binding at 10 µM (ALK): 90%
remaining binding at 10 µM (FRK): 58%
remaining binding at 10 µM (CSNK1G3): 85%
remaining binding at 10 µM (ASK1): 87%
remaining binding at 10 µM (SYK): 86%
